Usually melting point stands for the temperature of the solid-liquid transition.

≈ marks a conversion by molar mass, not a printed value.

Data set [1] concerns hormone receptor-positive breast cancer cell line (MCF-7). Description: Resazurin cytotoxicity assay, MCF-7. Particulars: for IC50: Homo sapiens, MCF7; for SI (Selectivity Index), IC50 of MCF-12A/IC50 of MCF-7: MCF-7 versus MCF-12A. It is filed as cell-based.
Another data set concerns insect-derived sf9. The arrangement: method as in PMID 19127726. The settings on record: cited from earlier work.
Data set [2] has as its system triple-negative breast cancer (HCC70) cell line. The data set is described as follows: Resazurin cytotoxicity assay, HCC70. Particulars: for IC50 (µM) HCC70 / IC50: HCC70 cells, 96 h treatment, resazurin; for SI (Selectivity Index), IC50 of MCF-12A/IC50 of HCC70: HCC70 versus MCF-12A; for IC50: Homo sapiens. It is filed as cell-based. Here is the method: (§1) The cytotoxicity of the pure compounds was evaluated using the in vitro cell culture against triple-negative breast cancer (HCC70) cell lines, hormone receptor-positive breast cancer (MCF-7), and non-tumorigenic epithelial cell lines derived from breast tissue (MCF-12A). A compound’s ability to inhibit a particular biochemical function is determined by its half-maximum inhibitory concentration (IC50). Etoposide was used as the positive control.
(§2) The cell viability after treatment with the isolated pure compounds of P. angolensis was analyzed using the resazurin assay in commercially available established cell lines purchased from the American Type Culture Collection. Triple-negative breast cancer cell line (HCC70) (estrogen receptor (ER)^−, progesterone receptor (PR), (HER-2)^−, (ATCC-CRL-2315)), hormone receptor-positive (ER^+, PR ^+, HER-2) breast cancer cell line (MCF-7) (ATCC: HTB-22), and non-tumorigenic breast epithelial cell line (MCF-12A) (ATCC: CRL-10782, a kind gift from Anna-Mart Engelbrecht, Stellenbosch University, Stellenbosch, South Africa) were maintained in culture in a 9% CO2 incubator at 37 °C. The HCC70 cell line was cultured in RPMI-1640 media (Gibco, Trenton, MI, USA) supplemented with 10% (v/v) fetal bovine serum (FBS) (BioWest, Nuaillé, France), 1% (v/v) 100 U/mL penicillin, streptomycin, and amphotericin (PSA) (Lonza, Basel, Switzerland), 1% (v/v) GlutaMAX^TM (Gibco) and 0.25% (v/v) sodium bicarbonate (Gibco). The MCF-7 cell line cell was cultured in Dulbecco’s Modified Eagles Medium (DMEM) (Gibco) supplemented with 10% (v/v) FBS, 1% (v/v) PSA and 1% (v/v) GlutaMAX^TM. The MCF-12A cell line was cultured in DMEM/Ham’s F-12 (BioWest) supplemented with 10% (v/v) FBS, 1% (v/v) PSA, 20 ng/mL human epidermal growth factor (Sigma, St. Louis, MO, USA), 100 ng/mL cholera toxin (Sigma), 500 ng/mL hydrocortisone (Abcam, Cambridge, UK) and 10 μg/mL insulin (Novo Nordisk, Bagsværd, Denmark). All cells were seeded into 96-well plates at a density of 5000 cells per well and allowed to adhere for the night in a 9% CO2 incubator at 37 °C. The cells were subsequently treated for 96 h at 37 °C in an incubator with 9 percent CO2 with the isolated compounds with […] at concentrations ranging from 15.63 to 500.00 μM or with 0.2% (v/v) DMSO (Sigma) as a vehicle control. Thereafter, 0.54 nM of resazurin (Glentham Life Sciences, Corsham, UK) solution was added, and cells were then cultured for two to four hours at 37 °C in an incubator with 9% CO2. A Spectramax spectrophotometer (Molecular Devices, Sunnyvale, CA, USA) was used to measure the fluorescence of the resulting solutions. The excitation and emission wavelengths were set at […], respectively. The experiment was repeated in technical triplicate, and the data were analyzed using GraphPad Prism (Boston, MA, USA). […] The selectivity index (SI) value of each compound was calculated as the ratio of IC50 of MCF-12A/IC50 of HCC70 or MFC-7 of the same compound, where an SI > 1 implies toxicity that is preferentially toxic to cancer cells compared to non-cancerous cells.
(In general: The colour change of resazurin is a common sign of viable cells or microbes.)

Another data set relates to Lactuca sativa seeds. More on the design: method as in PMID 19127726. The settings on record: cited from earlier work.
Data set [3] has as its system non-tumorigenic breast epithelial cell line (MCF-12A). The data set is described as follows: Resazurin cytotoxicity assay, MCF-12A. The class given is cell-based. Particulars: Homo sapiens, MCF-12A cells, 96 h treatment, read-out: IC50 (µM) MCF12A. Here is the method: as §1, §2
Another data set relates to CCRF-CEM cells. The arrangement: method as in earlier work. Particulars: read-out: IC50 cytotoxicity; cited from earlier work.
In data set [4] the test system is glioblastoma U87MG.EGFR cells, CEM/ADR5000 leukemia cells. More on the design: method as in earlier work. The settings on record: read-out: IC50 cytotoxicity; cited from earlier work.
In the next data set the test system is MCF-7. The arrangement: method as in PMID 28619518. Particulars: 48 h; read-out: activity against MCF-7; cited from earlier work.
The subject of the next data set is CYP3A4. More on the design: method as in PMID 30122094. The settings on record: read-out: inhibition of CYP3A4; cited from earlier work.
Data set [5] has as its system 2E1 human liver microsomal. More on the design: method as in PMID 30122094. Particulars: read-out: inhibition of 2E1; cited from earlier work.
The subject of data set [6] is Acinetobacter calcaoceuticus. More on the design: method as in PMID 19583913. Particulars: cited from earlier work.
The next data set relates to Staphylococcus aureus. The arrangement: method as in PMID 19583913. Particulars: cited from earlier work.
Data set [7] has as its system HeLa cervical cancer cells. The arrangement: method as in doi:10.15408/jkv.v1i1.20068. The settings on record: read-out: IC50 cytotoxicity; cited from earlier work.
For data set [8], the system named is oral epithelial carcinoma cells (KB/C152). More on the design: method as in PMID 32334461. The settings on record: cited from earlier work.
The subject of data set [9] is human endometrial carcinoma cell line HEC-1A. The arrangement: method as in PMID 32095097. The settings on record: HEC-1A cells; read-out: IC50 cytotoxicity; cited from earlier work.
For data set [10], the system named is human ovarian cancer cell line, SKOV3. The arrangement: method as in PMID 32095097. Particulars: SKOV3 cells; read-out: IC50 cytotoxicity; cited from earlier work.
The subject of another data set is Kocuria kristinae. More on the design: method as in PMID 19583913. The settings on record: cited from earlier work.
In another data set the test system is Staphylococcus typhi. The arrangement: method as in PMID 19583913. Particulars: cited from earlier work.
[11] abbreviates: MCF-7 cells, 96 h treatment, resazurin.

On to `C[C@H]1C(O)C(=O)CC2[C@]3(C)CC[C@@]4(C)C5CC(C)(C)CC[C@]5(C)CC[C@]4(C)C3CC[C@@]21C` (stereo partly drawn) [Compound 2, 3α-hydroxyfriedel-2-one], for which the results for the IC50 in data set [1] (setting [11]) and in data set [3] were 157 µM and 84.2 µM, respectively. For the same compound, the “SI (Selectivity Index), IC50 of MCF-12A/IC50 of MCF-7” value (from here on “SI (Selectivity Index) … of MCF-7”) in [1] is 0.53. The “cytotoxicity effect on sf9” value in the data set on insect-derived sf9 is on record as 8.32 µg/mL. For the same compound, the “IC50 (µM) HCC70” value in [2] was “Non-Toxic”. For the same compound, the phytotoxicity against germination entry with Lactuca sativa seeds was “no phytotoxicity”.
For `COc1ccc(C(C)C(=O)c2ccc(OC)cc2O)cc1` (centres unmarked) [Compound 6, 4-O-methylangolensis], the melting point was in the range of 70 to 71 °C. In addition, in data set [1] (setting [11]), the IC50 came to 77.5 µM. The “SI (Selectivity Index) … of MCF-7” value in data set [1] is reported as 1.91. Moreover, in data set [2], the “SI (Selectivity Index), IC50 of MCF-12A/IC50 of HCC70” value (from here on “SI (Selectivity Index) … of HCC70”) was found to be 1.32 and the IC50 came to 111 µM. The IC50 in data set [3] was determined as 148 µM.
With `CC1=C(O)C(=O)CC2[C@]3(C)CC[C@@]4(C)C5CC(C)(C)CC[C@]5(C)CC[C@]4(C)C3CC[C@]12C` (some centres unmarked) [Compound 3, 3-hydroxyfriedel-3-en-2-one], the melting point fell in the range of 265 to 268 °C. In data set [1] (setting [11]), this compound gave an IC50 of 101 µM. For the same compound, the “SI (Selectivity Index) … of MCF-7” value in data set [1] is given as 1.35. Besides, in data set [2], the “SI (Selectivity Index) … of HCC70” value was found to be 0.93 and the IC50 amounted to 146 µM. Moreover, in data set [3], the IC50 was found to be 136 µM.
`C=C(C)[C@@H]1CC[C@]2(C)CC[C@]3(C)[C@H](CC[C@@H]4[C@@]5(C)CC[C@H](O)C(C)(C)[C@@H]5CC[C@]43C)[C@@H]12` [Compound 4, lup-20(29)-en-3-ol]: the IC50 was 149 µM in data set [1] (setting [11]), 0.02 to 66.8 µM with CCRF-CEM cells, 36.6 µM in [3] and 13.6 to 69.4 µM in [4]. For the same compound, the “SI (Selectivity Index) … of MCF-7” value in data set [1] is recorded as 0.25. Also, the “IC50 (µM) HCC70” value in data set [2] is on record as “Non-Toxic”.
In the case of `C[C@H]1C(=O)CC[C@@H]2[C@]1(C)CC[C@H]1[C@@]2(C)CC[C@@]2(C)[C@@H]3CC(C)(C)CC[C@]3(C)CC[C@]12C` [Compound 1, friedelan-3-one], in data set [1] (setting [11]), the “IC50 (µM) MCF7” value was “Non-Toxic”. In addition, the IC50 in the data set with MCF-7 is 1.2 µM; with CYP3A4, 10.8 µM; in [5], 22.5 µM; in data set [3], 43.9 µM. Further, the “IC50 (µM) HCC70” value in data set [2] is given as “Non-Toxic”.
As to epicatechin-3-O-gallate, the “minimum inhibition concentration (MIC)” value (in [6]; in the data set with Staphylococcus aureus) was 50 µg/mL each time.
As for `CC[C@H](/C=C/[C@@H](C)[C@H]1CC[C@H]2[C@@H]3CC=C4C[C@@H](O)CC[C@]4(C)[C@H]3CC[C@]12C)C(C)C` [Compound 5, Stigmasta-5-22-dien-3-ol], the IC50 in data set [1] (setting [11]) is 227 µM; in data set [7], 26.4 µM; in data set [2], 109 µM; in data set [3], 44.1 µM. Further, the “SI (Selectivity Index) … of MCF-7” value in data set [1] turned out to be 0.19. Further, the IC50 cytotoxicity in data set [8] was 81.18 µg/mL (≈ 197 µM). In addition, in data set [2], the “SI (Selectivity Index) … of HCC70” value is on record as 0.40.
In the case of `CCCCCCCCCCCCCCOC(=O)/C=C/c1ccc(O)c(OC)c1` [Compound 8, tetradecyl (E)-ferulate], the melting point was in the range of 68 to 70 °C. In [1] (setting [11]), the IC50 worked out at 223 µM. For the same compound, the “SI (Selectivity Index) … of MCF-7” value in [1] is given as 0.03. Besides, in [2], the “SI (Selectivity Index) … of HCC70” value was 0.05 and the IC50 came to 128 µM. In addition, in data set [3], the IC50 was 6.95 µM.
With `COc1cc([C@@H]2c3cc4c(cc3[C@@H](O[C@@H]3O[C@@H]5CO[C@@H](C)O[C@H]5[C@H](O)[C@H]3O)[C@H]3COC(=O)[C@H]23)OCO4)cc(OC)c1O` [Etoposide, reference compound], the figures for the IC50 in data set [2] and in [3] were 44.8 µM and 10.9 µM, respectively.
Turning to `CC(=O)OC1CCC2(C)C(CCC3(C)C2CC=C2C4CC(C)(C)CCC4(C(=O)O)CCC23C)C1(C)C` (stereo not drawn) [Compound 7, (3β)-3-acetoxyolean-12-en-28-oic acid], the IC50 was 83.1 µM in [1] (setting [11]); 147 µM in [2]; 0.8 µM in data set [9]; 143 µM in [3]; 8.3 µM in [10]. Also, the “SI (Selectivity Index) … of MCF-7” value in data set [1] is 1.72. Moreover, the “SI (Selectivity Index) … of HCC70” value in data set [2] came out at 0.97.
Consider hexamer of epicatechin, for which the “minimum inhibition concentration (MIC)” value with Kocuria kristinae and in the data set on Staphylococcus typhi was 25 µg/mL throughout.

Source of the values: PMC10818308, “Phytochemicals from Pterocarpus angolensis DC and Their Cytotoxic Activities against Breast Cancer Cells” (Plants, 2024).
